Laboratory results reported in US20200239530A1, “COMPOUNDS AND METHODS OF MODULATING PROTEIN DEGRADATION” (Vividion Therapeutics, Inc., priority 2017, published 2020).

How the values were obtained:
[1] = target: T1, TUBA3D Tubulin alpha-3C/D chain (Homo sapiens, UniProt P0DPH8); assay: Cysteine liganding, probe competition; type: binding
T1 construct: Cells were resuspended in cold PBS on ice and sonicated with a probe sonicator to achieve lysis; endogenous in cells
Method in brief: (§1)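 Read-out is loss of desthiobiotin iodoacetamide labelling at cysteines, measured on streptavidin-enriched tryptic peptides. Compound preincubation ran 1 hr at 25° C in PBS lysate holding 5 mg/ml proteome before the probe was added.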

[2] = target: T2, ALDH18A1 Delta-1-pyrroline-5-carboxylate synthase (Homo sapiens, UniProt P54886); assay: Cysteine liganding, probe competition; type: binding
T2 construct: Cells were resuspended in cold PBS on ice and sonicated with a probe sonicator to achieve lysis; endogenous in cells
T2 sequence (P54886 1-795): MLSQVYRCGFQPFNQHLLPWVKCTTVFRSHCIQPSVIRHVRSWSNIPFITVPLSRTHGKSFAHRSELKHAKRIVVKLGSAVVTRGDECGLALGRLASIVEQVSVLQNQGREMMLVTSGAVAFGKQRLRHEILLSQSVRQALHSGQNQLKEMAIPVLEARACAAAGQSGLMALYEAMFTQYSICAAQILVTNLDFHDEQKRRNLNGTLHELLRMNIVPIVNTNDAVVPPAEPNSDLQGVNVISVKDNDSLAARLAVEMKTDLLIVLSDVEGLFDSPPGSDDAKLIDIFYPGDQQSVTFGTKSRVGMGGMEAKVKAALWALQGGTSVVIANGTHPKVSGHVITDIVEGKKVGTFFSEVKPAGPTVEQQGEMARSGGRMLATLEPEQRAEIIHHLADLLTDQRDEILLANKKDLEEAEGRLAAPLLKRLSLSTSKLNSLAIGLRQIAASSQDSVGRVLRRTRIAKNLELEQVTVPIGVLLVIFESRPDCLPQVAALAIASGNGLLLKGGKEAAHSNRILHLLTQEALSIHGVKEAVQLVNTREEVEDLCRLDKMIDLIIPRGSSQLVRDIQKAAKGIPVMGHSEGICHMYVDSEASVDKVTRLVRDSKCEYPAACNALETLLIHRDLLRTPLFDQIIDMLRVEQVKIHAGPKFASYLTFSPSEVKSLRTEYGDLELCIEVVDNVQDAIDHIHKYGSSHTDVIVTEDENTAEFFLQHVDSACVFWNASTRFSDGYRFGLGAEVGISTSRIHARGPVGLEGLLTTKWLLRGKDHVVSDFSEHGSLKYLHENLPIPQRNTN
Method in brief: as §1

T1 sequence (P0DPH8 whole entry, looked up): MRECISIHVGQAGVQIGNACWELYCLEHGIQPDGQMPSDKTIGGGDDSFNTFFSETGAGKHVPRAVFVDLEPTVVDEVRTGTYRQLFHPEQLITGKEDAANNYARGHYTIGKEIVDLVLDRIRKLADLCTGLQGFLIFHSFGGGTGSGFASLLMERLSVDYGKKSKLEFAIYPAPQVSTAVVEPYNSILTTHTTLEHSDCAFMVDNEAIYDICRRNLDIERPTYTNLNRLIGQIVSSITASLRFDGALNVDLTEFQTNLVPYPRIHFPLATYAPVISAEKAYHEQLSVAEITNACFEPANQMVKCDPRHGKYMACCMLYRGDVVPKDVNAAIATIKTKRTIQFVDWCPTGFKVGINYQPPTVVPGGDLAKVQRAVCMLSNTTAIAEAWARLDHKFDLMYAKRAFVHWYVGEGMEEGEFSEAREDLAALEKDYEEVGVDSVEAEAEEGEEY

Row | Structure (SMILES) | Liganded ([1]; TUBA3D Res# 4, uniprot Q13748) | Liganded ([1]; TUBA3D Res# 20, uniprot Q13748) | Liganded ([2]; ALDH18A1 Res# 612, uniprot P54886) | 100 Max ([2]; uniprot P54886) | 100 ave ([2]; uniprot P54886) | 500 Max ([2]; uniprot P54886) | 500 ave ([2]; uniprot P54886)
1 | COc1ccc2c(c1)CCCN2C(=O)CCl [KB02] | YES | YES | YES |  |  |  | 
2 | O=C(CCl)Nc1cc(C(F)(F)F)cc(C(F)(F)F)c1 [KBO3] | YES | YES |  | 34.21 | 13.91 | 66.31 | 66.23
